96 compounds from ChEMBL document CHEMBL3507680, “University of Dundee, Gates Library screen for HepG2 cell viability” can be followed below.

The nature of the series: Human HepG2 cell viability assay in 384 well format. Also on record: dose 125 nL, time 70.5 hour; cytotoxicity at 70.5 h: concentration not given beside the values. The following applies: HepG2 cells, read-out: Inhibition. In kind it is toxicity, cell-based.

Structures are written as SMILES.

For the compound `COc1cccc(CCC2CCCN(C(=O)c3ccccn3)C2)c1` (stereo unspecified), the cytotoxicity at 70.5 h was 17.8%.
To `CCC(CO)N(Cc1ccncc1)Cc1c[nH]nc1-c1ccc(F)cc1` (stereo unspecified) belongs -7.22%; to `CCOCCn1c(=O)n(CCC(C)C)c2ncc(C(=O)O)cc21`, 1.96%; to `C[C@@H]1CN(C(=O)c2ccncc2)CC[C@@]1(O)C1CCOCC1`, -1.23%.
On to `Cc1cc(CN2CCC(CNC(=O)C3(c4ccccc4)CC3)C2)[nH]n1` (stereo unspecified), for which the cytotoxicity at 70.5 h came out at 6.56%.
For `COCCN(C)C[C@H]1CC[C@@H](Cc2ccc3c(cnn3C)c2)O1`, the cytotoxicity at 70.5 h was -6.52%.
To `COCCn1ccnc1C1CCN(C(=O)CSc2nnc(C)s2)CC1` belongs -5.74%; to `Cc1ccc(CCN2C(=O)CC[C@H]3CN(Cc4cnn(C)c4)CC[C@H]32)o1`, -0.704%.
Regarding `Cc1nc(-c2ccncc2)ncc1C(C)NC(=O)CN1CCCC1=O` (stereo unspecified), the cytotoxicity at 70.5 h was -5.92%.
As for `Cc1nc(C)c(CC(=O)N2C[C@H]3CC[C@@H]2CN(c2cnccn2)C3)s1`, the cytotoxicity at 70.5 h is -4.55%.
`Cc1ccc(N(CC(=O)NCc2nnc3n2CCC3)S(C)(=O)=O)cc1`: the cytotoxicity at 70.5 h turned out to be 5.02%.
To `O=C(c1ccc(S(=O)(=O)NCc2ccon2)cc1)N1CCOCC1` belongs 19.9%.
Under `COc1ccc(CN2CCC(O)(CN3CCCCC3)C2)c(C)c1` (stereo unspecified) stands -1.76%; under `O=C(c1cccnc1)N1CCOC(CCCc2ccccc2)C1` (stereo unspecified), 0.528%; under `Cn1ncc(C2CC(=O)NCc3nc4ccccn4c32)c1C1CC1` (stereo unspecified), -11.4%.
To `CC(C1CCN(Cc2c(Cl)cncc2Cl)CC1)N1CCN(C)CC1` (stereo unspecified) belongs 14.7%.
On to `CN(C)C(=O)CN1C[C@@H]2CC[C@H](C1)N(Cc1c(F)cccc1Cl)C2`, for which the cytotoxicity at 70.5 h was -6.28%.
To `Cc1nccn1CCC1CCCCN1C(=O)c1ccc(N(C)C)cc1` (stereo unspecified) belongs -3.37%; to `CN1C(=O)C(c2ccccc2)CC12CCN(CCN1CCCC1=O)CC2` (stereo unspecified), 12.2%.
To `CCSc1ncc(CN2CCN(c3nc(C)ncc3C)CC2)cn1` belongs -11.5%; to `O=C(NCc1nnc2n1CCC2)c1ccc(C2CCCO2)s1` (stereo unspecified), -4.87%; to `COC(=O)NCC(=O)N1CCC(c2nc3cc(F)ccc3[nH]2)CC1`, -2%.
As for `Nc1nc2c(c(N3CCCC3)n1)CCN(Cc1ccccn1)CC2`, the cytotoxicity at 70.5 h is 8.7%.
Regarding `CCCc1nnc(N2CCC(N3CCCC(O)C3)CC2)o1` (stereo unspecified), the cytotoxicity at 70.5 h was found to be 7.96%.
With `c1ccc(CCc2n[nH]c(C3CCOC3)n2)cc1` (stereo unspecified), the cytotoxicity at 70.5 h is -10.1%.
To `CCc1nc(C)c(CN2CCOC(CCCC(C)C)C2)[nH]1` (stereo unspecified) belongs 27.1%; to `COc1ccc(OC)c(-n2c(COC(C)C)n[nH]c2=O)c1`, -4.44%; to `CCc1c(C(=O)N2C[C@H]3CC[C@@H]2CN(c2cnccn2)C3)csc1C`, -6.26%.
Under `COCC(=O)N1C[C@H]2CNC[C@@]2(C(=O)NCc2c(C)noc2C)C1` stands -0.367%.
In the case of `Cc1cc(C)nc(CN(C)C(=O)c2ccccc2C2CCNC2)c1` (stereo unspecified), the cytotoxicity at 70.5 h was -5.21%.
Under `COc1cccc(C(C(=O)O)N2CCCN(C3CCCC3)CC2)c1OC` (stereo unspecified) stands 20.1%; under `CN(Cc1nccn1C)C(=O)c1cccc(CCC(C)(C)O)c1`, 7.23%.
To `Cc1nc(CNC(=O)c2cc(COc3cccc(F)c3)[nH]n2)n[nH]1` belongs 15.3%; to `O=C(Nc1ccc(F)cc1)C1CNCCN1C(=O)CC1CCCCC1` (stereo unspecified), 31.3%; to `CCc1ocnc1C(=O)N1CCC2(CCCN(CC(C)(C)C)C2=O)C1` (stereo unspecified), -6.31%.
To `COCCc1noc(-c2ccc(-c3ccc(N)nc3)nc2)n1` belongs -2.31%; to `COc1ccccc1OC1CCN(Cc2ccc(N(C)C)nc2)CC1`, -6.85%.
For the compound `OC1CCN(c2ccnc(NCCc3ccccc3Cl)n2)CC1`, the cytotoxicity at 70.5 h is -25.8%.
Under `CC(=O)N[C@@H]1CN(Cc2nnc(-c3ccccc3)o2)C[C@H]1C(C)C` stands -16.1%.
Under `CCn1cc(-c2cc(-c3cc(CC(=O)O)cs3)nc(N)c2C#N)c(C)n1` stands -0.397%; under `Cc1nc(N2CCC(C(O)c3nccn3C)CC2)c2sccc2n1` (stereo unspecified), 35.8%; under `Cc1nn(C)c2nc(-c3ccccn3)nc(NCCCOC(C)C)c12`, -0.266%.
To `Cc1ccc(S(N)(=O)=O)cc1C(=O)N1C[C@@H](CN(C)C)[C@@H](CO)C1` belongs -5.13%.
On to `CCc1nnc(SCC(=O)N2CCc3[nH]nc(C4CCC4)c3C2)o1`, for which the cytotoxicity at 70.5 h was -2.31%.
Under `CCNc1ncc(C(=O)NC(CCN(C)C)c2ccccc2)cn1` (stereo unspecified) stands 26.8%; under `CSc1ccc2cc(CN(C)CCc3cn[nH]c3)c(=O)[nH]c2c1`, 2.27%.
On to `COCCN1CCCC2(CCN(Cc3nnc(C4CC4)o3)C2)C1=O` (stereo unspecified), for which the cytotoxicity at 70.5 h was -6.43%.
For `CCc1cc(C(=O)N2CC[C@@H](c3ccc4c(c3)OCO4)[C@H](O)C2)[nH]n1`, the cytotoxicity at 70.5 h is 25.7%.
As for `O=C(c1ncoc1C1CC1)N1CCCN(CCCc2ccccc2)CC1`, the cytotoxicity at 70.5 h is -10.2%.
Under `Cc1nc(CN2CCCC(CCc3c(F)cccc3F)C2)c[nH]1` (stereo unspecified) stands -2.43%; under `O[C@H]1[C@H](n2cc(-c3ccccc3)nn2)c2ccccc2C12CCNCC2`, 2.04%.
`Cc1cc(C(=O)N2CCC3(CCCN(CC4CC4)C3=O)C2)c(C)n1C` (stereo unspecified): the cytotoxicity at 70.5 h is -2.9%.
To `CN(CCO)C(=O)c1coc(CN2CCN(c3ccccc3F)CC2)n1` belongs -7.76%; to `CCOCCn1nc(C)cc1C(=O)N1CCN(C(C)C)C(CC)C1` (stereo unspecified), -8.86%; to `CC(=O)N1CCCn2nc(CNS(=O)(=O)c3cc(C)cs3)cc2C1`, -4.2%.
To `CC(C)c1cc(NCC(O)CO)n2nccc2n1` (stereo unspecified) belongs -0.638%; to `CSCCCN1CCn2nc(CNC(C)=O)cc2C1`, 14.2%.
Under `OCCC1CN(C2CCC2)CCN1C1CCCC1` (stereo unspecified) stands -6.56%.
In the case of `O=C(O)C(c1ccc2c(c1)OCO2)N1CCC(C(=O)N2CCCC2)CC1` (stereo unspecified), the cytotoxicity at 70.5 h was -2.61%.
With `CC(C)CN1CCCn2nc(CNC(=O)CCN)cc2C1`, the cytotoxicity at 70.5 h is -6.27%.
Consider `Cc1cc(N(C)Cc2noc(C)n2)n2nc(C)c(C)c2n1`, for which the cytotoxicity at 70.5 h is -8.45%.
For the compound `CCc1ccccc1CN1CC[C@@H](NC(=O)c2cccnc2)[C@H](O)C1`, the cytotoxicity at 70.5 h was found to be 1.15%.
For `O=C(CCc1cc2n(n1)CCN(Cc1ncc[nH]1)C2)N1CCCC1`, the cytotoxicity at 70.5 h worked out at 2.55%.
To `Cc1[nH]nc(CCC(=O)N2CCCC(OCc3cccnc3)C2)c1C` (stereo unspecified) belongs 1.55%; to `CCCn1cc(C(=O)N(C)Cc2nc(-c3ccccn3)no2)c(C)n1`, -8.48%; to `CCn1c(C2CCCN(Cc3nccn3CCOC)C2)nn(C)c1=O` (stereo unspecified), -11.9%.
To `CC1CCN(Cc2cnc(S(=O)(=O)CC3CC3)n2CC2CCCO2)CC1` (stereo unspecified) belongs 11.8%; to `COCc1ncc(CN2CCC(Oc3ccccc3OC)CC2)cn1`, -10.9%; to `CC(C)c1cc(N2CCC(CCC(=O)NC3CC3)CC2)n2nccc2n1`, -10.7%.
Regarding `N#Cc1ccccc1C(=O)N1CCC2(CC(=O)NC2=O)C1` (stereo unspecified), the cytotoxicity at 70.5 h was 15.7%.
Take `Cc1cc(F)ccc1OC1(C(=O)O)CCN(Cc2cccnc2N)CC1`: the cytotoxicity at 70.5 h stood at 0.105%.
On to `C[C@@H]1CN(C(=O)c2ccc(C#N)nc2)CC[C@@]1(O)C1CCOCC1`, for which the cytotoxicity at 70.5 h is -9.58%.
As to `CN1N=C(C(=O)N2CCCC(CCc3c(F)cccc3F)C2)CCC1=O` (stereo unspecified), the cytotoxicity at 70.5 h is -8.44%.
Under `CN(C)C(=O)CCC(=O)NCc1cccnc1-n1cnc2ccccc21` stands -8.79%; under `CN(C)C(C(=O)N1CCC(N2CCSCC2)CC1)c1ccccc1F` (stereo unspecified), -3.23%; under `CCc1cnc(N2CCC(=O)N(CC3CC3)C(C(C)C)C2)nc1` (stereo unspecified), 8.36%.
As to `Cn1cccc1CCC(=O)N1CCC2(CC1)c1ccccc1CC2O` (stereo unspecified), the cytotoxicity at 70.5 h was -12.2%.
For `Cc1cc(C(=O)N2CCC(c3nccn3CCCN(C)C)CC2)no1`, the cytotoxicity at 70.5 h stood at 0.885%.
Under `COc1ccccc1Oc1ncccc1CNC(=O)[C@@H](C)NC(C)=O` stands -0.828%.
Take `Cc1occc1C(=O)N1CCC2(CCCN(CC3CCC3)C2=O)C1` (stereo unspecified): the cytotoxicity at 70.5 h was -4.3%.
On to `CSc1cccc(CNC(=O)C2CC(=O)N(CCN(C)C)C2)c1` (stereo unspecified), for which the cytotoxicity at 70.5 h is 4.55%.
`COc1cc(C)c(CN2CCC3(CC2)C(C(=O)O)CC(=O)N3C)cc1C` (stereo unspecified): the cytotoxicity at 70.5 h amounted to 3.6%.
Under `O=C(c1ccc(C2CCCO2)s1)N1Cc2ccccc2C1` (stereo unspecified) stands 0.527%; under `COc1ccc(NC(=O)CCC2CCCN(Cc3ncon3)C2)c(C)c1` (stereo unspecified), -4.69%.
Under `COc1ccc(OC)c(C2CCN(Cc3nc(C)n4ccccc34)C2)c1` (stereo unspecified) stands -12.6%; under `O=C(c1cncc(N2CCC3(CCNCC3)CC2)n1)N1CCCC1`, 12.4%.
To `COc1ccccc1C1CNC(=O)c2nc(-c3cnn(C)c3)[nH]c2C1` (stereo unspecified) belongs -7.47%.
In the case of `O=C1OC2(CCNCC2)CN1CC(=O)N1CCCC1c1ccco1` (stereo unspecified), the cytotoxicity at 70.5 h was -9.95%.
To `Cc1nc[nH]c1CN1CCN(C(=O)c2cccs2)[C@H]2CS(=O)(=O)C[C@H]21` belongs -8.73%.
`Cc1ccsc1[C@@H]1CCN(C(=O)c2cc3ccccc3[nH]2)C[C@H]1O`: the cytotoxicity at 70.5 h came out at 0.623%.
To `O=C(O)C1(Cc2ccccc2Cl)CCN(c2ncccc2F)CC1` belongs -6.72%; to `Cc1cnn(C(C)C2CC2)c1NC(=O)c1ccncc1` (stereo unspecified), -8.36%; to `CN(C)C(=O)CN1C[C@@H]2CC[C@H](C1)N(C(=O)Cc1ccccc1Cl)C2`, 8.11%.
Take `CCCNC(=O)c1ccc2c(c1)C(=O)N(CC(C)C)C2=O`: the cytotoxicity at 70.5 h was -1.77%.
As for `CSCCCN1CC[C@@H](NC(=O)c2cnccn2)[C@H](O)C1`, the cytotoxicity at 70.5 h was -10.8%.
Under `CC(C)(C)N1CC(C(=O)N2CCN(CCn3cccc3)CC2)CC1=O` (stereo unspecified) stands -2.66%.
